The assay deals with PRMT5/MEP50 complex (Homo sapiens (Human), UniProt O14744). Description: PRMT5:MEP50 FlashPlate Assay (histone H4 peptide substrate, plus and minus MTA). The class given is biochemical. The method, then: The PRMT5 inhibitory activity of compounds of the present invention was determined using either a PRMT5:MEP50 FlashPlate Assay (Reaction Biology Corporation) or a PRMT5:MEP50 HotSpot Assay (Reaction Biology Corporation).
1. PRMT5:MEP50 FlashPlate Assay

Setting [1] is: IC50 + 2 μM MTA (nM), in the presence of 2 μM MTA.
[2] abbreviates: in the absence of MTA, read-out: IC50.

Where two headings read alike, the source gives them in different places.

Sequence of PRMT5/MEP50 complex (O14744 2-637): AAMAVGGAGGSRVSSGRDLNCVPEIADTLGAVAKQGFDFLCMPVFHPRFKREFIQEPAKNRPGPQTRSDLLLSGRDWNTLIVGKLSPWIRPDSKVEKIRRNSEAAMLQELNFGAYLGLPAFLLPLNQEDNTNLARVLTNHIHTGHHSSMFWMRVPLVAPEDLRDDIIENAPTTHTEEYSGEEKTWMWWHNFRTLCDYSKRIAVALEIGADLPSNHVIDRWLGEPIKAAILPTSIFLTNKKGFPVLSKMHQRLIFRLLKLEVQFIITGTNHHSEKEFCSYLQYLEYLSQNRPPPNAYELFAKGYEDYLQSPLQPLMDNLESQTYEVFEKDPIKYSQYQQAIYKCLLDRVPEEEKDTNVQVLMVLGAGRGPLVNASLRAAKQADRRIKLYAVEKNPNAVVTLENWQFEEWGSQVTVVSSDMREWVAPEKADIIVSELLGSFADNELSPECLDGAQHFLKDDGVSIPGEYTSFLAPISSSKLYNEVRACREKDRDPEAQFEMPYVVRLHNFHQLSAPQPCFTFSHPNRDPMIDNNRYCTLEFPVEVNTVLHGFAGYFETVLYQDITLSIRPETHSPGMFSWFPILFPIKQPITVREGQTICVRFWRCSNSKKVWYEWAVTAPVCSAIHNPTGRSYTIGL
Sequence of PRMT5/MEP50 complex (Q9BQA1 2-342 partner): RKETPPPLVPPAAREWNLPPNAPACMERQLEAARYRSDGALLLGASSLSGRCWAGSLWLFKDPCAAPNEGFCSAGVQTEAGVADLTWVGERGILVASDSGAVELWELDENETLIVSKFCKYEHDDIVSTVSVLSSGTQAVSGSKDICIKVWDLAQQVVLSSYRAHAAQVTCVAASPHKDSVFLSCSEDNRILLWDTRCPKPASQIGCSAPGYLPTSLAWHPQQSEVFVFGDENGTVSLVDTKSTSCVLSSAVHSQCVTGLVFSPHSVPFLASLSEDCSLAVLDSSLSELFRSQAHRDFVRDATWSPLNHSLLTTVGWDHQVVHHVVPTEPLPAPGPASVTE

For the compound `CCCNc1ccc2c(CN)n[nH]c(=O)c2c1` [Example 6-2], the IC50 is, setting by setting: under setting [1], > 100000 nM; under setting [2], > 100000 nM.
`CC(=O)N1CCn2ncc(-c3ccc4c(=O)[nH]nc(CN)c4c3)c2C1` [Example 4-84, 6-(5-acetyl-4,5,6,7-tetrahydropyrazolo[1,5-a]pyrazin-3-yl)-4-(aminomethyl)phthalazin-1(2H)-one]: the IC50 runs as follows: under setting [1], 93 nM; under setting [2], 4040 nM.
`NCc1n[nH]c(=O)c2ccc(-c3cncc(CC4CC4)c3)cc12` [Example 3-35, 4-(aminomethyl)-6-(5-(cyclopropylmethyl)pyridin-3-yl)phthalazin-1(2H)-one]: the IC50 under setting [1] turned out to be 59 nM and the IC50 under setting [2] is 1530 nM.
In the same order, the values of `NCc1n[nH]c(=O)c2ccc(-c3cccnn3)cc12` [Example 4-1, 4-(aminomethyl)-6-(pyridazin-3-yl)phthalazin-1(2H)-one] are 45000 nM and > 100000 nM.
Consider `Cc1ccc(-c2ccc3c(=O)[nH]nc(CN)c3c2)cn1` [Example 3-5, 4-(aminomethyl)-6-(6-methylpyridin-3-yl)phthalazin-1(2H)-one], for which the IC50 under setting [1] came to 7400 nM and the IC50 under setting [2] came to 87900 nM.
Turning to `NCc1n[nH]c(=O)c2ccc(-c3cnn4c3CN(C(=O)C3CC3)CC4)cc12` [Example 4-85, 4-(aminomethyl)-6-(5-(cyclopropanecarbonyl)-4,5,6,7-tetrahydropyrazolo[1,5-a]pyrazin-3-yl)phthalazin-1(2H)-one], the IC50 runs as follows: under setting [1], 29 nM; under setting [2], 1910 nM.
Consider `N#Cc1ccccc1Oc1cncc(-c2ccc3c(=O)[nH]nc(CN)c3c2)c1` [Example 7-2, 2-((5-(4-(aminomethyl)-1-oxo-1,2-dihydrophthalazin-6-yl)pyridin-3-yl)oxy)benzonitrile], for which the IC50 is, setting by setting: under setting [1], 16 nM; under setting [2], 246 nM.
For the compound `Cn1cc(-c2ccc3c(=O)[nH]nc(CN)c3c2)c2cccnc21` [Example 3-29, 4-(aminomethyl)-6-(1-methyl-1H-pyrrolo[2,3-b]pyridin-3-yl)phthalazin-1(2H)-one], under setting [1], the IC50 is 10000 nM.
`Cn1cncc1-c1ccc2c(=O)[nH]nc(CN)c2c1` [Example 3-30, 4-(aminomethyl)-6-(1-methyl-1H-imidazol-5-yl)phthalazin-1(2H)-one]: the IC50 runs as follows: under setting [1], 7700 nM; under setting [2], 85200 nM.
`NCc1n[nH]c(=O)c2ccc(-c3cncc4[nH]ccc34)cc12` [Example 3-55, 4-(aminomethyl)-6-(1H-pyrrolo[2,3-c]pyridin-4-yl)phthalazin-1(2H)-one]: the IC50 under setting [1] was determined as 83 nM and the IC50 under setting [2] amounted to 1870 nM.
In the case of `NCc1n[nH]c(=O)c2ccc(-c3cncc(Oc4ccc(F)cc4)c3)cc12` [Example 7-3, 4-(aminomethyl)-6-(5-(4-fluorophenoxy)pyridin-3-yl)phthalazin-1(2H)-one], the IC50 runs as follows: under setting [1], 15 nM; under setting [2], 388 nM.
For `CN1CCn2ncc(-c3ccc4c(=O)[nH]nc(CN)c4c3)c2C1` [Example 4-11, 4-(aminomethyl)-6-(5-methyl-4,5,6,7-tetrahydropyrazolo[1,5-a]pyrazin-3-yl)phthalazin-1(2H)-one], the IC50 runs as follows: under setting [1], 110 nM; under setting [2], 2400 nM.
For `NCc1n[nH]c(=O)c2ccc(-c3ccc(C(F)(F)F)nc3)cc12` [Example 3-8, 4-(aminomethyl)-6-(6-(trifluoromethyl)pyridin-3-yl)phthalazin-1(2H)-one], the concentration for half-maximal inhibition (IC50) is > 1e+06 nM under setting [1] and > 1e+06 nM under setting [2].
For `Cc1ccc(-c2c(-c3ccc4c(=O)[nH]nc(CN)c4c3)cnn2C)cn1` [Example 4-99, 4-(aminomethyl)-6-(1-methyl-5-(6-methylpyridin-3-yl)-1H-pyrazol-4-yl)phthalazin-1(2H)-one], the IC50 by setting is: under setting [1], 15 nM; under setting [2], 547 nM.
In the same order, the values of `CCn1cc(-c2ccc3c(=O)[nH]nc(CN)c3c2)cn1` [Example 3-15, 4-(aminomethyl)-6-(1-ethyl-1H-pyrazol-4-yl)phthalazin-1(2H)-one] are 650 nM and 18700 nM.
Consider `Cc1ccccc1Oc1cncc(-c2ccc3c(=O)[nH]nc(CN)c3c2)c1` [Example 4-72, 4-(aminomethyl)-6-(5-(o-tolyloxy)pyridin-3-yl)phthalazin-1(2H)-one], for which the IC50 reads like this: under setting [1], 3 nM; under setting [2], 73 nM.
Consider `NCc1n[nH]c(=O)c2ccc(-c3cccnc3)cc12` [Example 1-5, 4-(aminomethyl)-6-(pyridin-3-yl)phthalazin-1(2H)-one], for which the half-maximal inhibitory concentration (IC50) reads like this: under setting [1], 1400 nM; under setting [2], 34800 nM.
For `Cc1ccc(C#N)c(-c2cncc(-c3ccc4c(=O)[nH]nc(CN)c4c3)c2)c1` [Example 8-7, 2-(5-(4-(aminomethyl)-1-oxo-1,2-dihydrophthalazin-6-yl)pyridin-3-yl)-4-methylbenzonitrile] the same measures were 33 nM and 931 nM.
On to `CC(C)n1cc(-c2ccc3c(=O)[nH]nc(CN)c3c2)cn1` [Example 3-17, 4-(aminomethyl)-6-(1-isopropyl-1H-pyrazol-4-yl)phthalazin-1(2H)-one], for which the IC50 runs as follows: under setting [1], 770 nM; under setting [2], 15100 nM.
Regarding `CCCc1cncc(-c2ccc3c(=O)[nH]nc(CN)c3c2)c1` [Example 3-34, 4-(aminomethyl)-6-(5-propylpyridin-3-yl)phthalazin-1(2H)-one], the IC50 is, setting by setting: under setting [1], 73 nM; under setting [2], 2040 nM.
Regarding `Cn1nc(C(F)(F)F)cc1-c1ccc2c(=O)[nH]nc(CN)c2c1` [Example 3-20, 4-(aminomethyl)-6-(1-methyl-3-(trifluoromethyl)-1H-pyrazol-5-yl)phthalazin-1(2H)-one], the IC50 under setting [1] is 53000 nM.
As to `CC(C)c1c[nH]c2ncc(-c3ccc4c(=O)[nH]nc(CN)c4c3)cc12` [Example 3-61, 4-(aminomethyl)-6-(3-isopropyl-1H-pyrrolo[2,3-b]pyridin-5-yl)phthalazin-1(2H)-one], the IC50 turned out to be 3.4 nM under setting [1] and 80 nM under setting [2].
In the same order, the values of `NCc1n[nH]c(=O)c2ccc(-c3cncc(Oc4ccc(Cl)cc4)c3)cc12` [Example 7-4, 4-(aminomethyl)-6-(5-(4-chlorophenoxy)pyridin-3-yl)phthalazin-1(2H)-one] are 5.6 nM and 151 nM.
In the same order, the values of `NCc1n[nH]c(=O)c2ccc(-c3cnc(C(F)(F)F)nc3)cc12` [Example 3-12, 4-(aminomethyl)-6-(2-(trifluoromethyl)pyrimidin-5-yl)phthalazin-1(2H)-one] are 210000 nM and > 1e+06 nM.
For the compound `COc1ccn2c(-c3ccc4c(=O)[nH]nc(CN)c4c3)cnc2c1` [Example 4-19, 4-(aminomethyl)-6-(7-methoxyimidazo[1,2-a]pyridin-3-yl)phthalazin-1(2H)-one], the IC50 reads like this: under setting [1], 380 nM; under setting [2], > 100000 nM.
In the case of `NCc1n[nH]c(=O)c2ccc(-c3cncc(C4CC4)c3)cc12` [Example 3-33, 4-(aminomethyl)-6-(5-cyclopropylpyridin-3-yl)phthalazin-1(2H)-one], the IC50 stood at 61 nM under setting [1] and 1570 nM under setting [2].
For `NCc1n[nH]c(=O)c2ccc(-c3cncc(Cc4ccccc4)c3)cc12` [Example 4-50, 4-(aminomethyl)-6-(5-benzylpyridin-3-yl)phthalazin-1(2H)-one] the same measures were 22 nM and 456 nM.

Values taken from patent publication US11479551B2, “MTA-cooperative PRMT5 inhibitors” (Mirati Therapeutics, Inc., priority 2019, dated 2022).
